Measurements from PubChem BioAssay AID1259407 (Chemical Carcinogenesis Research Information System (CCRIS), 2018).
The source made the active and inactive calls. The rule behind the calls is not given here.

Test system: CCRIS mutagenicity, Ames/micronucleus/aberration tests
Assay: CCRIS mutagenicity studies
[1] = Test System: AMES SALMONELLA TYPHIMURIUM, Strain/Indicator: TA1535, Metabolic Activation: NONE, Method: STANDARD PLATE
[2] = Test System: AMES SALMONELLA TYPHIMURIUM, Strain/Indicator: TA98, Metabolic Activation: NONE, Method: PREINCUBATION
[3] = Test System: AMES SALMONELLA TYPHIMURIUM, Strain/Indicator: TA100, Metabolic Activation: NONE, Method: PREINCUBATION
[4] = Test System: AMES SALMONELLA TYPHIMURIUM, Strain/Indicator: TA98, Metabolic Activation: NONE, Method: STANDARD PLATE
[5] = Test System: AMES SALMONELLA TYPHIMURIUM, Strain/Indicator: TA100, Metabolic Activation: NONE, Method: STANDARD PLATE
[6] = Test System: AMES SALMONELLA TYPHIMURIUM, Strain/Indicator: TA1535, Metabolic Activation: HAMSTER, LIVER, S-9, AROCLOR 1254, Method: STANDARD PLATE
[7] = Test System: AMES SALMONELLA TYPHIMURIUM, Strain/Indicator: TA1537, Metabolic Activation: NONE, Method: STANDARD PLATE

Nc1cccc2c1-c1cccc3cccc-2c13
mutagenic call (Test System: AMES SALMONELLA TYPHIMURIUM, Strain/Indicator: TA98, Metabolic Activation: RAT, LIVER, S-9, AROCLOR 1254 (2 OR 4%), Method: STANDARD PLATE): active; positive | mutagenic call (Test System: AMES SALMONELLA TYPHIMURIUM, Strain/Indicator: TA100, Metabolic Activation: RAT, LIVER, S-9, AROCLOR 1254 (2%), Method: STANDARD PLATE): active; positive | mutagenic call (Test System: AMES SALMONELLA TYPHIMURIUM, Strain/Indicator: TA1535, Metabolic Activation: RAT, LIVER, S-9, AROCLOR 1254 (2%), Method: STANDARD PLATE): inactive; negative | mutagenic call (Test System: AMES SALMONELLA TYPHIMURIUM, Strain/Indicator: TA1537, Metabolic Activation: RAT, LIVER, S-9, AROCLOR 1254 (2%), Method: STANDARD PLATE): active; positive

O=C1C=Cc2ccc3c4c(ccc1c24)C(=O)c1ccccc1-3
mutagenic call (Test System: CHINESE HAMSTER V-79, Strain/Indicator: V-79/8-AZAGUANINE, Metabolic Activation: NONE, Method: STANDARD PLATE): active; positive

N=NCO
mutagenic call [1]: active; positive | mutagenic call (Test System: E. COLI, Strain/Indicator: WP2, Metabolic Activation: NONE, Method: STANDARD PLATE): active; positive | mutagenic call (Test System: E. COLI, Strain/Indicator: WP2 UVRA, Metabolic Activation: NONE, Method: STANDARD PLATE): active; positive

Cn1cnc2c3cccnc3ccc21
mutagenic call [2]: active; positive | mutagenic call (Test System: AMES SALMONELLA TYPHIMURIUM, Strain/Indicator: TA98, Metabolic Activation: RAT, LIVER, S-9, AROCLOR 1254, Method: PREINCUBATION): active; positive | mutagenic call [3]: active; positive | mutagenic call (Test System: AMES SALMONELLA TYPHIMURIUM, Strain/Indicator: TA100, Metabolic Activation: RAT, LIVER, S-9, AROCLOR 1254, Method: PREINCUBATION): active; positive

O=C(Nc1cccc(Br)c1)c1csc([N+](=O)[O-])c1
mutagenic call [4]: active; positive | mutagenic call [5]: active; positive

c1ccc(-c2ccc(CC3CO3)cc2)cc1 (stereo not given)
mutagenic call [3]: active; positive | mutagenic call [5]: active; positive | mutagenic call (Test System: AMES SALMONELLA TYPHIMURIUM, Strain/Indicator: TA1535, Metabolic Activation: NONE, Method: PREINCUBATION): active; positive | mutagenic call [1]: active; positive

O[C@H]1[C@H](O)COC(NCCc2c[nH]c3ccccc23)[C@@H]1O (stereo not given in full)
mutagenic call (Test System: AMES SALMONELLA TYPHIMURIUM, Strain/Indicator: TA100, Metabolic Activation: NONE, Method: LIQUID INCUBATION): active; positive

O[C@@H]1[C@@H]2O[C@@H]2c2c(ccc3nc4ccc5ccccc5c4cc23)[C@H]1O
mutagenic call [4]: active; positive | mutagenic call (Test System: AMES SALMONELLA TYPHIMURIUM, Strain/Indicator: TA100, Metabolic Activation: GUINEA PIG, LIVER, S-9, 3-METHYLCHOLANTHRENE, Method: STANDARD PLATE): active; positive | mutagenic call [5]: active; positive | mutagenic call (Test System: CHINESE HAMSTER V-79, Strain/Indicator: V-79/6-THIOGUANINE, Metabolic Activation: NONE): active; positive

ClC[C@H](Br)CBr
mutagenic call (Test System: AMES SALMONELLA TYPHIMURIUM, Strain/Indicator: TA100, Metabolic Activation: RAT, LIVER, MICROSOMES, Method: PREINCUBATION): active; positive

COC(=O)CCCN(N=O)C(N)=O
mutagenic call (Test System: E. COLI B, Strain/Indicator: H/R30R, Metabolic Activation: NONE): active; positive | mutagenic call (Test System: E. COLI B, Strain/Indicator: HS30R, Metabolic Activation: NONE): active; positive

Cc1c2c(c(CO)c3ccc4ccccc4c13)[C@H](O)[C@@H](O)C=C2
mutagenic call (Test System: CHINESE HAMSTER V-79, Strain/Indicator: V-79/6-THIOGUANINE, Metabolic Activation: CELL-MEDIATED, Method: STANDARD PLATE): active; positive | mutagenic call (Test System: CHINESE HAMSTER V-79, Strain/Indicator: V-79/OUABAIN, Metabolic Activation: CELL-MEDIATED, Method: STANDARD PLATE): active; positive

c1cc2c3c(cccc3c1)-c1c-2c2ccccc2c2ccccc12
mutagenic call (Test System: HUMAN H1A1V2 CELLS, Strain/Indicator: TK LOCUS, Metabolic Activation: NONE, Method: SUSPENSION/PLATE): inactive; negative

C=CC(=O)OCCOC(=O)C=C
mutagenic call (Test System: AMES SALMONELLA TYPHIMURIUM, Strain/Indicator: TA98, Metabolic Activation: HAMSTER, LIVER, S-9, AROCLOR 1254, Method: STANDARD PLATE): inactive; negative | mutagenic call [4]: inactive; negative | mutagenic call (Test System: AMES SALMONELLA TYPHIMURIUM, Strain/Indicator: TA98, Metabolic Activation: RAT, LIVER, S-9, SODIUM PHENOBARBITAL, Method: STANDARD PLATE): inactive; negative | mutagenic call (Test System: AMES SALMONELLA TYPHIMURIUM, Strain/Indicator: TA100, Metabolic Activation: HAMSTER, LIVER, S-9, AROCLOR 1254, Method: STANDARD PLATE): inactive; negative | mutagenic call [5]: inactive; negative | mutagenic call (Test System: AMES SALMONELLA TYPHIMURIUM, Strain/Indicator: TA100, Metabolic Activation: RAT, LIVER, S-9, SODIUM PHENOBARBITAL, Method: STANDARD PLATE): inactive; negative | mutagenic call [6]: inactive; negative | mutagenic call [1]: inactive; negative | mutagenic call (Test System: AMES SALMONELLA TYPHIMURIUM, Strain/Indicator: TA1535, Metabolic Activation: RAT, LIVER, S-9, SODIUM PHENOBARBITAL, Method: STANDARD PLATE): inactive; negative | mutagenic call (Test System: AMES SALMONELLA TYPHIMURIUM, Strain/Indicator: TA1537, Metabolic Activation: HAMSTER, LIVER, S-9, AROCLOR 1254, Method: STANDARD PLATE): inactive; negative | mutagenic call [7]: inactive; negative | mutagenic call (Test System: AMES SALMONELLA TYPHIMURIUM, Strain/Indicator: TA1537, Metabolic Activation: RAT, LIVER, S-9, SODIUM PHENOBARBITAL, Method: STANDARD PLATE): inactive; negative | mutagenic call (Test System: AMES SALMONELLA TYPHIMURIUM, Strain/Indicator: TA1538, Metabolic Activation: NONE, Method: STANDARD PLATE): inactive; negative | mutagenic call (Test System: AMES SALMONELLA TYPHIMURIUM, Strain/Indicator: TA1538, Metabolic Activation: RAT, LIVER, S-9, AROCLOR 1254, Method: STANDARD PLATE): inactive; negative | mutagenic call (Test System: AMES SALMONELLA TYPHIMURIUM, Strain/Indicator: TA1538, Metabolic Activation: RAT, LIVER, S-9, SODIUM PHENOBARBITAL, Method: STANDARD PLATE): inactive; negative

O=S(=O)(O)OCc1ccc2ccc3cccc4ccc1c2c34
mutagenic call [2]: active; positive

CN(Cc1ccc([N+](=O)[O-])cc1)N=O
mutagenic call [6]: active; positive | mutagenic call [1]: inactive; negative

NC(=O)[C@@H]1CCCN1C(=O)[C@H](Cc1cnc[nH]1)NC(=O)[C@@H]1CCC(=O)N1
mutagenic call [4]: inactive; negative | mutagenic call (Test System: AMES SALMONELLA TYPHIMURIUM, Strain/Indicator: TA98, Metabolic Activation: RAT, LIVER, S-9, AROCLOR 1254, Method: STANDARD PLATE): inactive; negative | mutagenic call [5]: inactive; negative | mutagenic call (Test System: AMES SALMONELLA TYPHIMURIUM, Strain/Indicator: TA100, Metabolic Activation: RAT, LIVER, S-9, AROCLOR 1254, Method: STANDARD PLATE): inactive; negative | mutagenic call [1]: inactive; negative | mutagenic call (Test System: AMES SALMONELLA TYPHIMURIUM, Strain/Indicator: TA1535, Metabolic Activation: RAT, LIVER, S-9, AROCLOR 1254, Method: STANDARD PLATE): inactive; negative | mutagenic call [7]: inactive; negative | mutagenic call (Test System: AMES SALMONELLA TYPHIMURIUM, Strain/Indicator: TA1537, Metabolic Activation: RAT, LIVER, S-9, AROCLOR 1254, Method: STANDARD PLATE): inactive; negative
